Read-outs that look alike come from different tables or passages of the source.

The target of data set [1] is T1, 5-HT1A receptor (Rattus norvegicus, UniProt P19327).
T1 sequence (P19327 1-422): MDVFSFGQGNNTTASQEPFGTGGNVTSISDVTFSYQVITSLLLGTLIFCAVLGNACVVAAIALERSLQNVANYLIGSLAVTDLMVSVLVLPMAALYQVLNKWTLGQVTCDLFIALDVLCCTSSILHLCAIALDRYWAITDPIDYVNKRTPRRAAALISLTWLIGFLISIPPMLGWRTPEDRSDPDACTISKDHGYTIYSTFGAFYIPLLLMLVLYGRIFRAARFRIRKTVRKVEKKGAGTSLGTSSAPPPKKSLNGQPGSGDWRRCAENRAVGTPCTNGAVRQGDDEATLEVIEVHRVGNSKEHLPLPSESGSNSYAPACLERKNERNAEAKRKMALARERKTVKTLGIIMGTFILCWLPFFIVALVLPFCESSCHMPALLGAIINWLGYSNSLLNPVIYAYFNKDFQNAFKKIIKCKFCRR
Briefly: 5HT1A receptor binding assay (3H-8-OH-DPAT, rat brain striatum membrane). The conditions noted are these: for IC50: cells marked ^a; for IC50 / inhibition at 10 µM: 3H-8-OH-DPAT, rat brain striatum membrane; for affinity for 5-HT1A receptor (in words): in vitro receptor binding assay; for inhibition at 10 µM: test compound final concentration 10^−5 M. How it is done: Incubation at 37° C. was conducted for 10 min, the weight of the tubes were adjusted using a balance after incubation. […] Centrifugation was conducted and repeated 3 times.

Data set [2] is described as follows: Catalepsy assay. It counts as in vivo. To be noted: both sexes, Kunming (KM), mouse, in vivo; mice, po. How it is done:
(§1) Healthy mice of Kunming breed (with half male and half female, (22±2)g) were provided by Qinglongshan Animal Cultivation Center, Nanjing.
(§2) Instruments: self-made bar-grabbing apparatus: stainless steel bar in mice box, which was 0.3 cm in diameter and […].
(§3) Corresponding solvent double-distilled water was administered intragastrically to the negative control group and the model group, corresponding positive drugs were administered intragastrically to the positive drug groups (a small amount of acetic acid was first added and then double-distilled water was added when dissolving), and corresponding dosages of compounds were administered intragastrically to the compound groups for each dosage, with the volume for intragastric administration as 0.1 ml/10 g. At 30 min, 60 min, 90 min after the intragastric administration, the two forepaws of the mice were gently placed on the bars (which were 20 cm in length, 0.3 cm in diameter, and 5.5 cm above the bench), and the hindpaws of the animals were placed on the bottom of the box. The durations for the mice to maintain the posture with the two forepaws on the bars were recorded, and 30 s of spasticity without moving was considered as the positive response. In the case the forepaws of the mice were not put down persistently, the observation was terminated at 60 s. The numbers of animals with positive response in each of the compound dosage groups were counted.

The target in data set [3] is T2, D3 receptor (Homo sapiens, UniProt P35462).
T2 construct: expressed in transfected cells; host or cells: HEK-293
T2 sequence (P35462 whole entry): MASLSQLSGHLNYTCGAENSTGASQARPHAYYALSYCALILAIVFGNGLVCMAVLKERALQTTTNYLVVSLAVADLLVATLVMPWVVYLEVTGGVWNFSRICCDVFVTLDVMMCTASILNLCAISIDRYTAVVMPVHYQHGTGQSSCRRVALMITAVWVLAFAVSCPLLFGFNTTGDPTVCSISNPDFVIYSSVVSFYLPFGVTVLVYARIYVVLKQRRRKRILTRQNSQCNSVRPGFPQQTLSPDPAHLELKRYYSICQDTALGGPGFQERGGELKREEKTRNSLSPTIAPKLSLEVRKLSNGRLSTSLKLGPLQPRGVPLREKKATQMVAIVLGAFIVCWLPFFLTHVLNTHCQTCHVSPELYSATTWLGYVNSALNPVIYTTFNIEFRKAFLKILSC
Kind of data set: D3 receptor assay ([3H]-Spiperone, HEK-293 cells). Type of data set: binding. To be noted: for inhibition at 10 µM: final concentration 10 μmol/L, [3H]-Spiperone, HEK-293 cells; for affinity for D3 receptor (in words): in vitro receptor binding assay. How it is done:
After the cells were centrifuged at 1000 rpm for 5 min, the supernatant was discarded, and the cell pellet was collected and stored in a −20° C. fridge for reservation. It was re-suspended with Tris-Cl (pH 7.4) in the assay.
Tris was divided into aliquots by Genetimes Technology Inc.
Competitive binding test for receptors: 20 μl of each of the test compounds and 20 μl of the radioactive ligand together with 160 μl of the receptor proteins were added into the reaction tubes, and the final concentrations of the test compound and the positive drug were all 10 μmol/L. After 50 min of incubation in 30° C. water bath, the tubes were immediately moved to ice bath to terminate the reactions. GF/C glass fiber filter papers were used for rapid sucking filtration on a Millipore cell sample collector, elution buffer (50 mM Tris-HCl, PH 7.4) was applied for 3 ml×3 times, and microwave was applied for 4-5 min for drying. The filter papers were moved into 0.5 ml centrifuge tubes, and 500 μl of lipid-soluble scintillation solution was added. The tubes were allowed to stand still for over 30 min in dark, and the intensities of radioactivity were measured by a counter.

For data set [4], the target named is 5-HT2A receptor (Rattus norvegicus, UniProt P14842). Kind of data set: 5HT2A receptor binding assay ([3H]-Ketanserin, rat brain striatum membrane). The conditions noted are these: for IC50: cells marked ^a; for affinity for 5-HT2A receptor (in words): in vitro receptor binding assay; for inhibition at 10 µM: read-out: 5HT2A inhibition %.
Sequence of 5-HT2A receptor (P14842 whole entry): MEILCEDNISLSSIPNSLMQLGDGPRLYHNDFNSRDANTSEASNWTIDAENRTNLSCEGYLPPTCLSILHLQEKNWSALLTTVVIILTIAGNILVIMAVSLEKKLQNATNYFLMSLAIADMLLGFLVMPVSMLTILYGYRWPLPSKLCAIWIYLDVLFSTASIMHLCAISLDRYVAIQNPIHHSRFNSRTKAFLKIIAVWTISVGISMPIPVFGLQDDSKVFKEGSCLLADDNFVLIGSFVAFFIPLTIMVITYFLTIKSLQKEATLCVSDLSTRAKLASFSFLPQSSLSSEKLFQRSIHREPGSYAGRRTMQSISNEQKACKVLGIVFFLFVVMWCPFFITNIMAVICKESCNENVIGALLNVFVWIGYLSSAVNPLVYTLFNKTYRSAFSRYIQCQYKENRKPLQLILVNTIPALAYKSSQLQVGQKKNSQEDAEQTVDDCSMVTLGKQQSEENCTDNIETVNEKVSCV
Data set [5] has as its target 5-HT2C receptor (Rattus norvegicus, UniProt P08909). Kind of data set: 5HT2C receptor binding assay ([3H]-mesulergine, rat brain striatum membrane). To be noted: for affinity for 5-HT2C receptor (in words): in vitro receptor binding assay; for inhibition at 10 µM: read-out: 5HT2C inhibition %.
Data set [6] addresses dopamine D2 receptor (Rattus norvegicus, UniProt P61169). Kind of data set: D2 receptor binding assay (3H-Spiperone, rat brain striatum membrane). To be noted: for affinity for D2 receptor (in words): in vitro receptor binding assay; for inhibition at 10 µM: read-out: D2 inhibition %.
Method: Rats were sacrificed by cervical dislocation on ice. Brain striatum was rapidly taken, and 2 brain striatums were combined into a centrifuge tube, to which 3 ml of buffer (0.05 M Tris-HCl buffer, containing NaCl 120 mM, KCl 5 mM, MgCl2 1 mM, CaCl2 1 mM) was added, homogenization was conducted for 3-4 s at level 4 for four times, and then 5 ml of buffer was then added. The weight of the homogenized tubes were adjusted using a balance, and centrifugation was conducted at 12000 r, 4° C. for 20 min. The supernatant was discarded, and 3 ml of buffer was added (0.05 M Tris-HCl buffer, containing NaCl 120 mM, KCl 5 mM, MgCl2 1 mM, CaCl2 1 mM). Vortex mixer was used for blending, and then 5 ml of buffer was added (0.05 M Tris-HCl buffer, containing NaCl 120 mM, KCl 5 mM, MgCl2 1 mM, CaCl2 1 mM). Centrifugation was conducted (repeated 3 times). After the centrifugations, the supernatant was discarded, and the pellets were stored at −80° C. for future use.
Beckman LS-6500 Multi-function Liquid Scintillation Counter was used.
(1) The prepared membrane was first applied with appropriate amount of homogenized liquid, and homogenizer was used for evenly dispersing. 15 tubes were mixed into a 100 ml container, and appropriate amount of homogenized liquid was added to give 50 ml of membrane suspension, which was reserved for future use.
(2) 100 μL of membrane preparation and 100 μL of buffer were added into each reaction tube.
(3) 100 μL of homogenized liquid was added into the total binding tube (TB), 100 μL of Butaclamol (final concentration 10^−5 M) was added into the non-specific binding tube (NB), and 100 μL of the test compound (final concentration 10^−5 M) was added into the specific binding tube (SB) for each compound.
(5) Each of the reaction tubes was incubated at 37° C. for 20 min. After the reaction was completed, the bound ligands were rapidly filtered under reduced pressure, and the ice-chilled assay buffer was used for adequate washing. The filter was taken out and put into a 3 ml scintillation vial, and 2 ml of toluene scintillation solution was added and blended.
(6) The scintillation vials were put into Liquid Scintillation Counter for counting. Inhibitory rate(1%)=(Total binding tube cpm−compound cpm)/(Total binding tube cpm−non-specific binding tube cpm)×100%
Each assay for the compounds was conducted in duplicate.
The nature of data set [7]: in vivo. The conditions noted are these: both, mouse, po.
Method: (§4) KM mice (half male and half female) were randomly divided into several groups (with 2-5 mice in each group), which were respectively the 2000 mg/kg groups for each compound, and the solvent group. 0.2 ml/10 g were administered intragastrically. The death of the animals in 3 days were observed. (In the case 3 or more animals survived in 3 days without notable abnormity in their life states, the observation was continued until the assay was completed in 7 days. In the case 3 or more animals died in 3 days, the median lethal dose method was used to determine the LD50).
(§5) 0.2 ml/10 g were administered intragastrically, and the death of the animals in 1-3 days were observed.
Data set [8] concerns KM mice. Briefly: Apomorphine induced clambering assay of mice. Type of data set: in vivo. The conditions noted are these: for ED50: Mus musculus, po, apomorphine 1 mg/kg sc. How it is done:
Healthy KM mice (male, with body weight of 18-22 g) were provided by Qinglongshan Animal Cultivation Center, Nanjing.
Test positive drugs: haloperidol, clozapine, risperidone, olanzapine, aripiprazole, ziprasidone, quetiapine.
Apomorphine provided by Sigma Company was dissolved in 0.9% NaCl (containing 0.1% vitamin C) before use, and was freshly formulated before use.
Corresponding solvent double-distilled water was administered intragastrically to the negative control group and the model group, corresponding positive drugs were administered intragastrically to the positive drug groups (a small amount of acetic acid was first added and then double-distilled water was added when dissolving), and corresponding dosages of compounds were administered intragastrically to the compound groups for each dosage, with the volume for intragastric administration as 0.1 ml/10 g. 1 hour after the intragastric administration, apomorphine was subcutaneously injected (1 mg/kg), with the volume as 0.1 ml/10 g. After the injection of apomorphine, the mice were immediately put into the clambering cages. After 5 min of adaptation, the behaviors of the mice at 10-11, 20-21, and 30-31 min after the injection of apomorphine were observed and scored. Scoring criteria: 4 paws on the floor was scored as 0; 2 forepaws on the cage was scored as 1; and 4 paws on the cage was scored as 2.

For data set [9], the system named is mice of Kunming breed. Kind of data set: MK-801 induced high activity in mice. The conditions noted are these: for ED50: Mus musculus, 1.5 h, po, MK-801 0.1 mg/kg ip, spontaneous activity in 90 min; for improvement of MK-801 induced high activity (in words): compared to the model group. Type of data set: in vivo. How it is done:
Healthy mice of Kunming breed (with half male and half female, (20±2)g) were provided by Qinglongshan Animal Cultivation Center, Nanjing.
Subsequently, the spontaneous activities of the mice of each group in 90 min were measured.

The subject of data set [10] is KM mice. Kind of data set: Catalepsy assay. Type of data set: in vivo. How it is done: as §1, §2, §3
Data set [11] deals with KM mice. The conditions noted are these: both, mouse, in vivo.
Method: as §4, §5
The mark [12] stands for this setting: [3H]-Ketanserin, rat brain striatum membrane.

Sequence of 5-HT2C receptor (P08909 33-460): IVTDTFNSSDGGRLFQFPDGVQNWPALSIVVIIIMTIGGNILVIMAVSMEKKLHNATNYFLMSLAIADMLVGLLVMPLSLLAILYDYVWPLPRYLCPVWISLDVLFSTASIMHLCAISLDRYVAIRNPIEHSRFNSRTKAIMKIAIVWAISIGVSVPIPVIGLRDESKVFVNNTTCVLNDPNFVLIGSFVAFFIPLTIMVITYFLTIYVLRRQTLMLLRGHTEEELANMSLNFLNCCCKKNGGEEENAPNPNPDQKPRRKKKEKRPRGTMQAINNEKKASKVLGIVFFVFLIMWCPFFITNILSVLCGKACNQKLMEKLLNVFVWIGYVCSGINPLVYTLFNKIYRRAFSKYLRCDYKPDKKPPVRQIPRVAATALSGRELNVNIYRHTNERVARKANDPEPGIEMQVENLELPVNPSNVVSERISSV
Sequence of dopamine D2 receptor (P61169 whole entry): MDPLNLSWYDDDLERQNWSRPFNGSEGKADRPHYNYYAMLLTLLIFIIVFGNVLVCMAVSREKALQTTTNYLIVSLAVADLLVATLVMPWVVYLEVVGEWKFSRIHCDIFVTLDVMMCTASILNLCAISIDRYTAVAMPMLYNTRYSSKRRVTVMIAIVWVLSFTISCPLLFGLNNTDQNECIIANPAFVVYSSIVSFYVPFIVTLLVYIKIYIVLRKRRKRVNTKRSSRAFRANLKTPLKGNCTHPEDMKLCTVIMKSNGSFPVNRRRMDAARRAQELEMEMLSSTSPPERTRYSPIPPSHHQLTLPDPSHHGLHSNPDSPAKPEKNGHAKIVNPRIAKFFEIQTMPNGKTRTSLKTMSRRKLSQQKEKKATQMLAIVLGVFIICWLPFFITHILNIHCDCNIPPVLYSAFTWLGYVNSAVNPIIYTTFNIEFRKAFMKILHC

Take `O=c1ccc2ccc(OCCCCN3CCC(c4noc5cc(F)ccc45)CC3)cc2o1` [Compound 1, 7-(4-(4-(3-(6-fluoro-benzisoxazole)-1-piperidyl)-n-butoxy))-2H-benzopyran-2-one]: the results for the IC50 in [1] and in data set [4] (setting [12]) were 9.61 nM and 1.53 nM, respectively. The “affinity for 5-HT1A receptor (in words)” value in data set [1] is “relatively stronger affinities”. Further, the 50% effective dose (ED50) in data set [2] was determined as 1.41 mg/kg; in data set [8], 0.32 mg/kg; in [9], 0.61 mg/kg. The inhibition at 10 µM was 97.6% in data set [3], 88% in [5] and 128% in data set [6]. In data set [3], the “affinity for D3 receptor (in words)” value was “relatively stronger affinities”. Further, the “affinity for 5-HT2A receptor (in words)” value in data set [4] was “relatively stronger affinities”. For the same compound, the “affinity for 5-HT2C receptor (in words)” value in data set [5] was “lower affinities”. For the same compound, the “affinity for D2 receptor (in words)” value in data set [6] is recorded as “relatively stronger affinities”. Further, the LD50 in [7] is greater than 2000 mg/kg.
Turning to `Cc1cc(=O)oc2cc(OCCCCN3CCC(c4noc5cc(F)ccc45)CC3)ccc12` [Compound 6, 7-(4-(4-(3-(6-fluoro-benzisoxazole)-1-piperidyl)-n-butoxy))-4-methyl-2H-benzopyran-2-one], the 50% inhibitory concentration (IC50) in [1] was found to be 3.52 nM; in data set [4] (setting [12]) it was 0.39 nM. In addition, the “affinity for 5-HT1A receptor (in words)” value in [1] is given as “relatively stronger affinities”. Also, the 50% effective dose (ED50) stood at 0.68 mg/kg in data set [2], 0.11 mg/kg in data set [8] and 0.32 mg/kg in [9]. The values for the inhibition at 10 µM in data set [3], in data set [5] and in data set [6] were 100%, 91.4% and 101%, respectively. The “affinity for D3 receptor (in words)” value in [3] is given as “relatively stronger affinities”. Also, in [4], the “affinity for 5-HT2A receptor (in words)” value is “relatively stronger affinities”. For the same compound, in data set [5], the “affinity for 5-HT2C receptor (in words)” value was “lower affinities”. The “affinity for D2 receptor (in words)” value in data set [6] is “relatively stronger affinities”. Further, in data set [7], the LD50 is greater than 2000 mg/kg.
With `Cc1cc(=O)oc2cc(OCCCN3CCC(c4noc5cc(F)ccc45)CC3)ccc12` [Compound 7, 7-(3-(4-(3-(6-fluoro-benzisoxazole)-1-piperidyl)-n-propoxy))-4-methyl-2H-benzopyran-2-one], the half-inhibitory concentration (IC50) came to 5.95 nM in data set [1] and 0.69 nM in data set [4] (setting [12]). For the same compound, the “affinity for 5-HT1A receptor (in words)” value in data set [1] is “relatively stronger affinities”. For the same compound, the median effective dose (ED50) in data set [2] worked out at 1.5 mg/kg; in data set [8], 0.15 mg/kg; in data set [9], 0.27 mg/kg. In addition, the inhibition at 10 µM stood at 101% in data set [3], 82% in [5] and 103% in data set [6]. The “affinity for D3 receptor (in words)” value in data set [3] is recorded as “relatively stronger affinities”. Further, the “affinity for 5-HT2A receptor (in words)” value in [4] was “relatively stronger affinities”. The “affinity for 5-HT2C receptor (in words)” value in data set [5] is listed as “lower affinities”. The “affinity for D2 receptor (in words)” value in [6] is given as “relatively stronger affinities”. In data set [7], this compound gave an LD50 of 1000 to 2000 mg/kg.
With `Cc1cc(=O)oc2c(Cl)c(OCCCCN3CCC(c4noc5cc(F)ccc45)CC3)ccc12` [Compound 19, 7-(4-(4-(3-(6-fluoro-benzisoxazole)-1-piperidyl)-n-butoxy))-4-methyl-8-chloro-2H-benzopyran-2-one], the inhibition at 10 µM in [1] was determined as 104%; in data set [4] (test compound final concentration 10^−5 M, [3H]-Ketanserin, rat brain striatum membrane), 119%; in [6], 27.8%. Besides, the ED50 in data set [2] was determined as 70.8 mg/kg; in data set [8] it was 1.68 mg/kg; in data set [9] it was 1.33 mg/kg. For the same compound, the “EPS at effective dosage (in words)” value in [10] is recorded as “did not cause EPS”. The compound also displayed an LD50 in data set [7] (KM) greater than 2000 mg/kg. Moreover, in data set [8], the “improvement of apomorphine induced clambering symptoms (in words)” value is on record as “effectively improve”. Further, in [9], the “improvement of MK-801 induced high activity (in words)” value was “significantly improve”.
As to `Cc1cc(=O)oc2c(C)c(OCCCCN3CCC(c4noc5cc(F)ccc45)CC3)ccc12` [Compound 23, 7-(4-(4-(3-(6-fluoro-benzisoxazole)-1-piperidyl)-n-butoxy))-4,8-dimethyl-2H-benzopyran-2-one], the inhibition at 10 µM stood at 78.5% in data set [1], 78.6% in [4] and 6.9% in [6]. The ED50 in [2] came out at 46.1 mg/kg; in data set [8], 0.21 mg/kg; in data set [9] it was 4.24 mg/kg. Moreover, the “EPS at effective dosage (in words)” value in data set [10] was “did not cause EPS”. Moreover, in data set [7], the LD50 was greater than 2000 mg/kg. Moreover, the “improvement of apomorphine induced clambering symptoms (in words)” value in data set [8] is given as “effectively improve”. Further, in data set [9], the “improvement of MK-801 induced high activity (in words)” value was “significantly improve”.
Turning to `O=C1CCc2ccc(OCCCCN3CCN(c4cccc(Cl)c4Cl)CC3)cc2N1` [aripiprazole], in data set [11], the “LD50 (po, mg/kg)” value amounted to 93 mg/kg.

In general, IC50 refers to the point on the concentration scale where inhibition reaches its midpoint. Higher therefore signals a need for much substance. A word on the ED50: it is the dose at which the effect has come halfway, by size or by number of responders. High values mean a need for a large dose, low ones an effect at a small dose. As a reminder, the inhibition is the relative decrease from the control value, in per cent. A word on the LD50: it is the dose at which mortality reaches 50%. The low end stands for greater toxicity, the high end for lower toxicity.
